# ChEMBL document CHEMBL1201862, “PubChem BioAssay data set” (2004)
# The source made the active and inactive calls. Rule as the data show it, for most assays here: actives have a measured EC50 and inactives only a lower limit.
# Tests used:
# H9c2 = test: cells; format: functional, cell-based; details: Rattus norvegicus, H9c2, Myocardium;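 also: confirmatory concentration-response retest of ultra-high-throughput screening hits for modulation of myocardial damage; cell death induced by hydrogen peroxide oxidative stress; compound pretreatment for 60 min then peroxide exposure for 2 h; potency is for protecting the cells against peroxide damage rather than for killing them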
# [1] = target: T1, Corticotropin-releasing factor receptor 2/Corticotropin-releasing factor-binding protein (Homo sapiens, UniProt P24387+Q13324); test: Dose Response confirmation of uHTS hits for small molecule antagonists of the CRF-binding protein and CRF-R2 receptor complex.; format: functional; details: read-out: IC50_Mean
# T1 sequence (Q13324 whole entry): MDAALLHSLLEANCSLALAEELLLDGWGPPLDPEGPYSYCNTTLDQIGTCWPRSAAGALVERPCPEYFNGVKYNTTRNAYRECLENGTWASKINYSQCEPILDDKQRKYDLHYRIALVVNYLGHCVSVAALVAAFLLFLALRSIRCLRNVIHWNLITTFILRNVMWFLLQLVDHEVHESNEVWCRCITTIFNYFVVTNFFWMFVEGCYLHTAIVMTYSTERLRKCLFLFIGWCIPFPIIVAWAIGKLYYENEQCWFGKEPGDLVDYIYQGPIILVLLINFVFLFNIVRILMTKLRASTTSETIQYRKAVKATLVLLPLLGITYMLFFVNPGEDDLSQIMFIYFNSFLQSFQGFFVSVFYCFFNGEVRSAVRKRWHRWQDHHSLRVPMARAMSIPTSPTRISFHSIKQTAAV
# T1 sequence (P24387 whole entry): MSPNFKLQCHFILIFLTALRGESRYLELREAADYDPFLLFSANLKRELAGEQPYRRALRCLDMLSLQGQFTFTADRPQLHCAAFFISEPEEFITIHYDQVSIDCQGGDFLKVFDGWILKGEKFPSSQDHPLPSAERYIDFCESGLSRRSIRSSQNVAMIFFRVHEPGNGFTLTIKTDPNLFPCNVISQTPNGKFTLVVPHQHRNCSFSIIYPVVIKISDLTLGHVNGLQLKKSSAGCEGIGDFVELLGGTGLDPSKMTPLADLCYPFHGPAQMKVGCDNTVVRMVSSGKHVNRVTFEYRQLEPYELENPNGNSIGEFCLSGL
# [2] = target: T1, Corticotropin-releasing factor receptor 2/Corticotropin-releasing factor-binding protein; test: activators of CRF receptor 2 with binding protein – uHTS hits, confirmation (AID 602473); format: functional; details: read-out: EC50_Mean
# [3] = test system: Streptococcus sp. 'group A'; test: Streptococcus pyogenes SK(-)GAS viability under kanamycin – luminescence, BacTiterGlo, confirmation, counter-screen for streptokinase expression inhibitor project, dose response (AID 1900); format: functional, organism-based
# Streptokinase A = target: T2, Streptokinase A (Streptococcus pyogenes serotype M1, UniProt P10520); test: viability-normalized secreted streptokinase activity reduction – plasminogen activation absorbance, OD405, dose response (AID 1914); format: functional, Streptococcus pyogenes M1 GAS;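 also: secreted streptokinase activity via plasminogen activation per viability signal from cell pellet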
# T2 sequence (P10520 whole entry): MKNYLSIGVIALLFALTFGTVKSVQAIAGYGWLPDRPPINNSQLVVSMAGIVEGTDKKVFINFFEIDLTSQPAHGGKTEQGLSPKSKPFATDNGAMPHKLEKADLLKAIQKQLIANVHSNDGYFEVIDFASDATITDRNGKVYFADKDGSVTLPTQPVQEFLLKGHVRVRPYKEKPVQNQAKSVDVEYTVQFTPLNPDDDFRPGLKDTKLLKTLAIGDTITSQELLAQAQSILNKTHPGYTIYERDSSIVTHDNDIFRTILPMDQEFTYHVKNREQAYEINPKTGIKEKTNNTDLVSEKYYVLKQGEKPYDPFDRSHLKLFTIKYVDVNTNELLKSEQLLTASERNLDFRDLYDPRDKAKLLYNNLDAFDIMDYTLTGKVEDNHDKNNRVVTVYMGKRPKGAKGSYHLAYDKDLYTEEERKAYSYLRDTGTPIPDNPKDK
# Streptococcus = test: GAS UMAA2166 growth inhibition – luminescence, BacTiterGlo, counter-screen for streptokinase expression inhibitor project, dose response (AID 1915); format: functional, organism-based;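 also: potency for reduction of bacterial viability or growth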
# H4 = test: Luminescence Cell-Based Dose Response HTS to Identify Activators of 5'UTR Stem-Loop Driven Prion Protein mRNA Translation in H4 Neuroglioblastoma Cells. [Related pubchem assays: 1829 (Project Summary), 1814 (Primary HTS)]; format: functional; details: Homo sapiens
# [4] = Luminescence Cell-Based Dose Response HTS to Identify Activators of Luciferase Translation or Activity in H4 […] Cells. [Related pubchem assays: 1829 (Project Summary), 1814 (Primary HTS)]; format: functional
# [5] = fluconazole-exposed Candida albicans growth modulators – fluorescence, retest, confirmation (AID 2467); format: functional, cell-based
# [6] = NIH-3T3 fibroblast cytotoxicity, dose response, cytotoxicity control, cell-based, fluorescence, Alamar Blue, secondary assay (AID 2327); format: functional;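 also: NIH-3T3 mouse fibroblasts cultured with fluconazole at 8 µg/mL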
# [7] = target: T3, RNA-binding protein pos-1 (Caenorhabditis elegans, UniProt G5EF15); test: disruptors of C. elegans POS-1 RNA interaction – biochemical, fluorescence polarization, dose response (AID 1964);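 also: purified POS-1 fused to maltose binding protein made in E. coli; potency of compounds blocking POS-1 binding to fluorescent RNA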
# T3 sequence (G5EF15 whole entry): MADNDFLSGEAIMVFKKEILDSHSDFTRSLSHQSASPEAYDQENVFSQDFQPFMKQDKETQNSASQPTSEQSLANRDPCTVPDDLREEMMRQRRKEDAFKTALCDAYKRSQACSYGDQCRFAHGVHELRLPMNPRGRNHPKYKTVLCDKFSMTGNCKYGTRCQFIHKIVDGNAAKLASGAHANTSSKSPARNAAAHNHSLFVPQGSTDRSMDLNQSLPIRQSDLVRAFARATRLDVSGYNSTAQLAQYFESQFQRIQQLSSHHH
# [8] = target: T4, Zinc finger protein mex-5 (Caenorhabditis elegans, UniProt Q9XUB2); test: potency of MEX-5 RNA-binding blockers – biochemical, C. elegans, fluorescence polarization, dose response (AID 1960)
# T4 sequence (Q9XUB2 whole entry): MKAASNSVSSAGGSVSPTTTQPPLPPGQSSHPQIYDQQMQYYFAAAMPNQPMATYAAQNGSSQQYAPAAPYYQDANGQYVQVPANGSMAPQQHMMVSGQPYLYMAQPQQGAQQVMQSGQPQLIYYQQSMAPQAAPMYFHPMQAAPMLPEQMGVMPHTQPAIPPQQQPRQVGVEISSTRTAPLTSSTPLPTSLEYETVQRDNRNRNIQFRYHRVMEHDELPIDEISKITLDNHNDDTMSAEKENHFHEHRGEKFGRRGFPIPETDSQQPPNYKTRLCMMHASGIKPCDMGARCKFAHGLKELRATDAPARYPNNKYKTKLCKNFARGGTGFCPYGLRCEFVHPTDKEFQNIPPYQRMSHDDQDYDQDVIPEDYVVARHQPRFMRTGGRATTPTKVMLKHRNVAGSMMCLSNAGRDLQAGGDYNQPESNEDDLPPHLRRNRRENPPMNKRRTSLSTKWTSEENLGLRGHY
compound,measurement,setting,value
O=C(NCCN1CCOCC1)c1cnn2c(-c3ccccc3)cc(-c3ccccc3)nc12,IC50,H9c2,> 79 µM (inactive)
Cc1ccn(C(=O)c2ccc(NC(=O)C3CCCCC3)cc2)n1,IC50,[1],> 47.1 µM (inactive)
same,EC50,[2],> 53 µM (inactive)
Nc1nc(CN2CCC(Cc3ccccc3)CC2)nc(Nc2ccccc2)n1,EC50,[3],14.8 µM (active)
same,EC50,Streptokinase A,> 150 µM (not active)
same,EC50,Streptococcus,> 150 µM (not active)
C[C@]12CC[C@H]3[C@@H](CC[C@H]4C[C@@H](O)CC[C@@]43C)[C@@H]1C[C@@H](O)C2,IC50,H9c2,> 79 µM (inactive)
CCn1c(SCC(=O)N2CCCCC2)nc2c(c1=O)SCC2,IC50,[1],> 47.1 µM (inactive)
same,EC50,[2],> 53 µM (inactive)
CC(C)c1ccc(/C=N/NC(=O)c2cc(-c3cccc([N+](=O)[O-])c3)[nH]n2)cc1,IC50,[1],> 47.1 µM (inactive)
same,EC50,[2],> 53 µM (inactive)
CCCC(=O)NCCc1ccc(F)cc1,EC50,[3],> 150 µM (not active)
same,EC50,Streptokinase A,> 150 µM (not active)
same,EC50,Streptococcus,> 150 µM (not active)
CC(C)C/C=C1\CCc2c([nH]c3ccccc23)C1=O,EC50,H4,45.4 µM (active)
same,EC50,[4],27.8 µM (active)
O=C1NCCN1CCNS(=O)(=O)c1cc(C(F)(F)F)cc(C(F)(F)F)c1,EC50,[5],> 38 µM (not active)
same,EC50,[6],> 150 µM (inactive)
COc1cc(/C=C2\SC(Nc3cccnc3)=NC2=O)cc(OC)c1OC,EC50,[3],36.8 µM (active)
same,EC50,Streptokinase A,> 150 µM (not active)
same,EC50,Streptococcus,68.5 µM (active)
CSc1nc2cc(Cl)ccc2s1,IC50,[1],> 47.1 µM (inactive)
same,EC50,[2],> 53 µM (inactive)
COc1ccccc1Oc1c[nH]nc1-c1ccc(OCC(=O)NN)cc1O,EC50,[7],> 300 µM (not active)
same,EC50,[3],> 150 µM (not active)
same,EC50,Streptokinase A,> 150 µM (not active)
same,EC50,[8],120 µM (active)
same,EC50,Streptococcus,> 150 µM (not active)
COCCn1c(-c2ccccc2)cs/c1=N\c1cccnc1,IC50,[1],22.3 µM (active)
same,EC50,[2],> 53 µM (inactive)
CC(C)(C)NS(=O)(=O)c1ccc(NS(=O)(=O)Cc2ccccc2)cc1,EC50,[3],> 150 µM (not active)
same,EC50,Streptokinase A,> 150 µM (not active)
same,EC50,Streptococcus,> 150 µM (not active)
COc1ccc(C(C(=O)NC2CCCCC2)N(Cc2cccs2)C(=O)Cc2c[nH]c3ccccc23)cc1OC (configuration not stated),IC50,[1],> 47.1 µM (inactive)
same,IC50,H9c2,> 79 µM (inactive)
same,EC50,[2],> 53 µM (inactive)
O=C(COc1ccc(Cl)cc1Cl)Nc1ccccc1NS(=O)(=O)c1cccs1,IC50,[1],> 47.1 µM (inactive)
same,EC50,[2],33.1 µM (active)
Cc1c(C#N)c(N)nc2c3c(sc12)NC(=O)CC3c1ccccc1 (configuration not stated),IC50,H9c2,32.6 µM (inactive)
CCO/C(O)=C1\C(C)=NC(C)=C(C(=O)OCCNC(=O)c2cccnc2)C1c1cccc([N+](=O)[O-])c1 (configuration not stated),IC50,H9c2,> 79 µM (inactive)
COc1ccc(N/C=C(\C#N)c2nc3ccccc3n2C)c(OC)c1,IC50,H9c2,> 79 µM (inactive)
COc1ccc2nc(O)c(CN(CC3CCCO3)S(=O)(=O)c3ccccc3F)cc2c1 (configuration not stated),IC50,H9c2,15.5 µM (active)
Cc1ccc(C(=O)Oc2ccc(Cl)c3cccnc23)cc1[N+](=O)[O-],IC50,H9c2,> 79 µM (inactive)
O=C(NNC(=O)c1cc2ccccc2cc1O)Nc1ccccc1F,EC50,[5],> 38 µM (not active)
same,EC50,[6],> 160 µM (inactive)
O[C@@H]1CCCN2CCc3c([nH]c4ccccc34)[C@H]12,EC50,[3],> 150 µM (not active)
same,EC50,Streptokinase A,> 150 µM (not active)
same,EC50,Streptococcus,> 150 µM (not active)
Cc1ccsc1/C=N/NS(=O)(=O)c1ccc([N+](=O)[O-])cc1,EC50,[5],1.81 µM (active)
same,EC50,[6],> 150 µM (inactive)
O=C(COC(=O)Cn1[nH]c(=O)c2ccccc2c1=O)Nc1ncc(Cl)cc1Cl,IC50,H9c2,> 79 µM (inactive)
Cc1cc(NC(=O)CN2C(=O)NC(CC(C)C)C2=O)no1 (configuration not stated),IC50,[1],> 47.1 µM (inactive)
same,EC50,[2],> 53 µM (inactive)
C=C(C)CNC(=S)N/N=C1\CCCCc2ccccc21,EC50,[5],6.24 µM (active)
same,EC50,[6],62.5 µM (active)
CCCCNC(=O)c1cn(-c2ccc(OCC)cc2)c(=O)c2cc(OC)c(OC)cc12,IC50,H9c2,15.3 µM (active)
Cc1cccc(NC(=O)c2[nH]cnc2C(=O)NCCCCCCNC(=O)c2nc[nH]c2C(=O)Nc2cccc(C)c2)c1,IC50,H9c2,14.4 µM (active)
Cc1ccc(C(C)C)cc1OCC(=O)Nc1ccccc1N1CCCC1,EC50,Streptokinase A,14.1 µM (active)
same,EC50,Streptococcus,> 150 µM (not active)
O=C(Nc1ccc(F)cc1)c1nc2c(nnn2Cc2cccc3ccccc23)c(=O)[nH]1,EC50,Streptokinase A,> 150 µM (not active)
Cc1nn(C)cc1C(C(=O)NC1CCCCC1)N(C(=O)Cc1cccs1)c1ccc(Cl)cc1 (configuration not stated),IC50,H9c2,15.2 µM (active)
same,EC50,[2],12 µM (active)
C=C(C)CSc1nc2c(cc1C#N)CCC2,IC50,[1],> 47.1 µM (inactive)
same,EC50,[2],> 53 µM (inactive)
O=C(Nc1scc(-c2ccc(Br)cc2)c1C(=O)O)c1ccccc1F,EC50,[3],2.83 µM (active)
same,EC50,Streptokinase A,9.9 µM (active)
same,EC50,Streptococcus,11 µM (active)
CCN(C[C@H]1N[C@@](Cc2ccccc2)(C(=O)OC)[C@H]2C(=O)N(C)C(=O)[C@@H]12)S(=O)(=O)c1ccc(OC)cc1,IC50,H9c2,7.53 µM (active)
CN(CC(=O)Nc1cccc(F)c1)C(=O)Cc1nnc(O)c2ccccc12,IC50,H9c2,25.6 µM (active)
COC(=O)c1ccc(NC(=O)COC(=O)CSc2nc(C)cc(C)n2)cc1,IC50,[1],> 47.1 µM (inactive)
same,EC50,[2],> 53 µM (inactive)
CC1CCN(C(=O)C2CCN(S(=O)(=O)c3cccnc3)CC2)CC1,IC50,[1],> 47.1 µM (inactive)
same,EC50,[2],> 53 µM (inactive)
CN(/C(=N/S(=O)(=O)c1cccs1)c1ccccc1)c1ccc(O)cc1,EC50,[5],> 38 µM (not active)
same,EC50,[6],> 150 µM (inactive)
O=C(ONC1=NCCCCC1)c1cccc([N+](=O)[O-])c1,EC50,[5],2.12 µM (active)
same,EC50,[6],> 150 µM (inactive)
